# Data as given in ChEMBL document CHEMBL1149145, “Synthesis and selective inhibitory activity of 1-acetyl-3,5-diphenyl-4,5-dihydro-(1H)-pyrazole derivatives against monoamine oxidase” (J Med Chem, 2004).
# How the values were obtained:
# [1] = biological target: Monoamine oxidase (Bos taurus); assay: Inhibition of bovine monoamine oxidase
# [2] = biological target: Amine oxidase [flavin-containing] A (Bos taurus) (UniProt P21398); assay: Inhibition of bovine monoamine oxidase A
# [3] = biological target: Amine oxidase [flavin-containing] B (Bos taurus) (UniProt P56560); assay: Inhibition of bovine monoamine oxidase B
# Sequence of Amine oxidase [flavin-containing] B (Bos taurus) (P56560 whole entry, looked up): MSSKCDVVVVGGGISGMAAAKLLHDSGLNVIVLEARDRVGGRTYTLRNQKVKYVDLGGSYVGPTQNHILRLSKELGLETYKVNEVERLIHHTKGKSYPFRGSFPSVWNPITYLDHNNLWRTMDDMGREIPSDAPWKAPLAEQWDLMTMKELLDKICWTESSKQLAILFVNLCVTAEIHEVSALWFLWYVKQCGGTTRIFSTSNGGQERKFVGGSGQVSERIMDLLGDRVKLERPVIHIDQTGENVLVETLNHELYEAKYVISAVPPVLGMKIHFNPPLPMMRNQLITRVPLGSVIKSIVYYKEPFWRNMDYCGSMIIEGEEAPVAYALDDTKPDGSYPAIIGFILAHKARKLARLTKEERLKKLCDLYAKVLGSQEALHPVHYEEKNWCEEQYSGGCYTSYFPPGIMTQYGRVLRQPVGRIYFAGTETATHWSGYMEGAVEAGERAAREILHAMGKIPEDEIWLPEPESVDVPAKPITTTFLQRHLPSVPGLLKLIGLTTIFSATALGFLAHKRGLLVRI
# [4] = biological target: Amine oxidase [flavin-containing] A (Bos taurus) (UniProt P21398); assay: Binding affinity was evaluated against bovine monoamino oxidase A
# [5] = biological target: Amine oxidase [flavin-containing] B (Bos taurus) (UniProt P56560); assay: Binding affinity was evaluated against bovine monoamino oxidase B
IC50 [1] [µM],IC50 [2] [µM],IC50 [3] [µM],Ki [4] [µM],Ki [5] [µM],Structure (SMILES)
10,0.009,83,–,–,COc1ccc(C2CC(c3ccc(O)cc3O)=NN2C(C)=O)cc1 (stereo not drawn)
0.2,0.1,30,–,–,CC(=O)N1N=C(c2ccc(O)cc2)CC1c1ccc(C)cc1 (stereo not drawn)
12,0.01,25,–,–,CC(=O)N1N=C(c2ccc(O)cc2)CC1c1cccc(Cl)c1 (stereo not drawn)
9.5,0.008,19,–,–,CC(=O)N1N=C(c2ccc(O)cc2)CC1c1cccc(C)c1 (stereo not drawn)
20,0.01,120,–,–,CC(=O)N1N=C(c2ccc(O)cc2O)CC1c1ccc(Cl)cc1 (stereo not drawn)
9.5,0.009,42,–,–,CC(=O)N1N=C(c2ccc(O)cc2O)CC1c1ccc(C)cc1 (stereo not drawn)
50,0.0086,89,–,–,CC(=O)N1N=C(c2ccc(O)cc2)CC1c1ccccc1Cl (stereo not drawn)
10,0.01,20,–,–,COc1ccc(C2CC(c3ccc(O)cc3)=NN2C(C)=O)c(OC)c1 (stereo not drawn)
3.6,0.009,7.2,–,–,COc1ccc(C2CC(c3ccc(O)cc3)=NN2C(C)=O)cc1 (stereo not drawn)
40,0.1,40,–,–,CC(=O)N1N=C(c2ccc(O)cc2)CC1c1ccc(Cl)cc1 (stereo not drawn)
–,–,–,0.007,270,"COc1ccccc1C1CC(c2ccc(O)cc2O)=NN1C(C)=O (single isomer, unassigned; (+))"
–,–,–,0.002,330,"COc1ccccc1C1CC(c2ccc(O)cc2)=NN1C(C)=O (single isomer, unassigned; (-))"
–,–,–,0.004,320,"COc1ccccc1C1CC(c2ccc(O)cc2O)=NN1C(C)=O (single isomer, unassigned; (-))"
30,0.0088,100,0.009,760,COc1ccccc1C1CC(c2ccc(O)cc2)=NN1C(C)=O (stereo in doubt; 6)
40,0.008,130,0.008,600,COc1ccccc1C1CC(c2ccc(O)cc2O)=NN1C(C)=O (stereo in doubt; 11)
–,–,–,0.006,1000,COc1ccccc1C1CC(c2ccc(O)cc2)=NN1C(C)=O (stereo in doubt; (+)-6)
